US8361998B2, “Compounds and their use as IKACh blockers” (AstraZeneca AB, priority 2010, dated 2013)
Counter-ions that a name gives are not always drawn. Like-named read-outs stand apart in the source and are kept apart here.

Molecular target: T1, human cardiac ion channel proteins hKir3.1/Kir3.4 (Homo sapiens, UniProt P48544+P48549)
T1 construct: expressed in transfected cells
T1 sequence (P48549 1-501): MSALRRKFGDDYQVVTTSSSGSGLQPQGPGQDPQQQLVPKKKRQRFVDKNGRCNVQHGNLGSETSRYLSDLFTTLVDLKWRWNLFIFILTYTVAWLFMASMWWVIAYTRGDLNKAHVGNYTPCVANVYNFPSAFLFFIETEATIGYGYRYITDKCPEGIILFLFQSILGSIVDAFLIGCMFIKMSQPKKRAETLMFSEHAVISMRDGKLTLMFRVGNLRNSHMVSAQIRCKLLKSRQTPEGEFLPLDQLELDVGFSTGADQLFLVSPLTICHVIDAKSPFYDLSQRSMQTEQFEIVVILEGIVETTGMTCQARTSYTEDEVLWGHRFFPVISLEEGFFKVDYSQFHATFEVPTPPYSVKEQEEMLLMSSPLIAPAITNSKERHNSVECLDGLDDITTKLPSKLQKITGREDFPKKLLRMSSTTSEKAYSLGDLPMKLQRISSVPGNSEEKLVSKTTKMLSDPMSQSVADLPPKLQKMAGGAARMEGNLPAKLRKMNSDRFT
T1 sequence (P48544 1-419): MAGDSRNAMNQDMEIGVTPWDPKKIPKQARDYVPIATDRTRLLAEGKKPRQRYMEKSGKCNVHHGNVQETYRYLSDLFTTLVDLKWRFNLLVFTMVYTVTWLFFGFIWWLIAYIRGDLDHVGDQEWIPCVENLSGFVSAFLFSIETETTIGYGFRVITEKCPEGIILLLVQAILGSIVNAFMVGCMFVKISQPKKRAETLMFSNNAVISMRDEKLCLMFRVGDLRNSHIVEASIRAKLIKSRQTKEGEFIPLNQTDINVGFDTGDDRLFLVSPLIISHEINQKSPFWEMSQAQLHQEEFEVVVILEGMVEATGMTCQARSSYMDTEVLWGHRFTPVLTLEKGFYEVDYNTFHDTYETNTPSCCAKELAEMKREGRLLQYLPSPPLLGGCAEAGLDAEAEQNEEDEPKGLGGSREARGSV
Assay: Atomic Absorption Screening (AAS) Rb efflux assay of hKir3.1/Kir3.4 block, carbachol/high K+ stimulated, 10-pt or 7-pt CR
Type: cell-based
Conditions: AAS Rb efflux, CHO-K1 cells expressing hKir3.1/Kir3.4
Outline: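 CHO-K1 cells stably co-expressing human Kir3.1/Kir3.4 were Rb-loaded for 3 h at 37° C, preincubated with compound 5 min at RT, then stimulated 10 min with 10 μM carbachol plus 20 mM KCl (final). Supernatant Rb was measured by atomic absorption. Compounds ran at 0.003–67 μmol/L (10-pt) or 0.037–27 μmol/L (7-pt), threefold dilutions; IC50s are means of >4 or >3 replicates respectively.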

[1] = 10-pt CR (0.003 to 67 μmol/L), mean of >4 replicates, read-out: IKACh IC50 10-pt CR, AAS
[2] = 7-pt CR (0.037 to 27 μmol/L), mean of >3 replicates, read-out: IKACh IC50 7-pt CR, AAS

IC50 [1]	SMILES	IC50 [2]
72 nM	CN(C(=O)c1ccc(Cl)cc1)[C@H](CN1CC(O)C1)C1CCC1 [Example 39.14, (S)-4-Chloro-N-(1-cyclobutyl-2-(3-hydroxyazetidin-1-yl)ethyl)-N-methylbenzamide]	
3400 nM	CC(C)C[C@@H](CN1CC(O)C1)N(C)C(=O)c1ccc(C#N)cc1F [Example 38.6, 4-Cyano-2-fluoro-N-[(2S)-1-(3-hydroxyazetidin-1-yl)-4-methylpentan-2-yl]-N-methylbenzamide]	
78 nM	Cc1cc(C(=O)N(C)[C@H](CN2CC(O)C2)C2CCC2)ccc1F [Example 39.16, (S)—N-(1-Cyclobutyl-2-(3-hydroxyazetidin-1-yl)ethyl)-4-fluoro-N,3-dimethylbenzamide]	
110 nM	CC(C)C[C@@H](CN1CC(O)C1)N(C)C(=O)c1ccc(Cl)cc1 [Example 38.2, 4-Chloro-N-[(2S)-1-(3-hydroxyazetidin-1-yl)-4-methylpentan-2-yl]-N-methylbenzamide]	
1100 nM	CCCC[C@@H](CN1CC(O)C1)N(C)C(=O)c1ccc(C#N)cc1 [Example 33.4, 4-Cyano-N-[(2S)-1-(3-hydroxyazetidin-1-yl)hexan-2-yl]-N-methylbenzamide]	
1300 nM	CC(C)C[C@@H](CN1CC(O)C1)N(C)C(=O)c1ccc(F)c(F)c1 [Example 38.1, 3,4-Difluoro-N-[(2S)-1-(3-hydroxyazetidin-1-yl)-4-methylpentan-2-yl]-N-methylbenzamide]	
550 nM	CCCC[C@@H](CN1CC(O)C1)N(C)C(=O)c1ccc(F)cc1 [Example 33.7, 4-Fluoro-N-[(2S)-1-(3-hydroxyazetidin-1-yl)hexan-2-yl]-N-methylbenzamide]	
3500 nM	CC[C@H](C)[C@@H](CN1CC(O)C1)N(C)C(=O)c1ccc(C#N)cc1F [Example 29.7, 4-Cyano-2-fluoro-N-((2S,3S)-1-(3-hydroxyazetidin-1-yl)-3-methylpentan-2-yl)-N-methylbenzamide]	
3900 nM	CC[C@@H](CN1CC(O)C1)N(C)C(=O)c1ccc(Cl)cc1 [Example 39.12, (S)-4-Chloro-N-(1-(3-hydroxyazetidin-1-yl)butan-2-yl)-N-methylbenzamide]	
490 nM	CN(C(=O)c1ccc(C#N)cc1)[C@H](CN1CC(O)C1)C1CCC1 [Example 39.2, (S)-4-Cyano-N-(1-cyclobutyl-2-(3-hydroxyazetidin-1-yl)ethyl)-N-methylbenzamide]	

Further lines, the molecule ahead of its results:

SMILES	IC50 [1]	IC50 [2]
Cc1cc(C(=O)N(C)[C@H](CN2CC(O)C2)C2CC2)ccc1F [Example 7.1, (S)—N-(1-Cyclopropyl-2-(3-hydroxyazetidin-1-yl)ethyl)-4-fluoro-N,3-dimethylbenzamide]	1300 nM	
CCC[C@@H](CN1CC(O)C1)N(C)C(=O)c1ccc(Cl)cc1 [Example 8.2, (S)-4-Chloro-N-(1-(3-hydroxyazetidin-1-yl)pentan-2-yl)-N-methyl-benzamide, hydrochloride]	880 nM	
CC(C)[C@@H](CN1CCCC1)N(C)C(=O)c1ccc(F)c(Cl)c1 [Example 16.55, (S)-3-Chloro-4-fluoro-N-methyl-N-(3-methyl-1-(pyrrolidin-1-yl)butan-2-yl)benzamide]	1900 nM	1400 nM
CC(C)[C@@H](CN1CCCC1)N(C)C(=O)c1ccc(Cl)cc1 [Example 18, (S)-1-(2-(4-Chloro-N-methylbenzamido)-3-methylbutyl)pyrrolidinium chloride]	6800 nM	1200 nM
CN(C(=O)c1ccc(F)c(Cl)c1)[C@H](CN1CC(O)C1)C1CC1 [Example 7.3, (S)-3-Chloro-N-(1-cyclopropyl-2-(3-hydroxyazetidin-1-yl)ethyl)-4-fluoro-N-methylbenzamide]	1900 nM	
CCC[C@@H](CN1CCC1)N(C)C(=O)c1ccc(F)c(C)c1 [Example 1.4, (S)-N-(1-(Azetidin-1-yl)pentan-2-yl)-4-fluoro-N,3-dimethyl-benzamide]	3700 nM	
CC(C)[C@@H](CN1CCCC1)N(C)C(=O)c1ccc(Br)cc1 [Example 19, (S)-1-(2-(4-bromo-N-methylbenzamido)-3-methylbutyl)pyrrolidinium 3-carboxy-2,3-dihydroxypropanoate]	4600 nM	820 nM
Cc1cc(C(=O)N(C)[C@H](CN2CCC2)C2CC2)ccc1F [Example 4.1, (S)—N-(2-(Azetidin-1-yl)-1-cyclopropylethyl)-4-fluoro-N,3-dimethylbenzamide]	5900 nM	
CC(C)[C@@H](CN1CCC1)N(C)C(=O)c1ccc(Br)cc1.O=C(O)CCC(=O)O [Example 5.2]	1800 nM	
CN(C(=O)c1ccc(Br)cc1)[C@H](CN1CC(O)C1)C1CC1 [Example 4.4, (S)-4-Bromo-N-(1-cyclopropyl-2-(3-hydroxyazetidin-1-yl)ethyl)-N-methylbenzamide]	590 nM	
Cc1cccc(C(=O)N(C)[C@H](CN2CCCC2)C(C)C)c1 [Example 12.2, (S)-1-(2-(N,3-Dimethylbenzamido)-3-methylbutyl)pyrrolidinium 2,3-dihydroxysuccinate]	16000 nM	5800 nM
CC(C)[C@@H](CN1CC[C@H](O)C1)N(C)C(=O)c1ccc(Cl)cc1 [Example 10.2, 4-Chloro-N-((S)-1-((S)-3-hydroxypyrrolidin-1-yl)-3-methylbutan-2-yl)-N-methylbenzamide hemi tartrate]	5100 nM	2000 nM
CC(C)[C@@H](CN1CC(O)C1)N(C)C(=O)c1ccc(Cl)cc1 [Example 6.2, (S)-4-Chloro-N-(1-(3-hydroxyazetidin-1-yl)-3-methylbutan-2-yl)-N-methylbenzamide]	2600 nM	
CCC[C@@H](CN1CC(O)C1)N(C)C(=O)c1ccc(F)c(F)c1 [Example 8.1, (S)-3,4-Difluoro-N-(1-(3-hydroxyazetidin-1-yl)pentan-2-yl)-N-methylbenzamide]	1700 nM	
CCC[C@@H](CN1CC(O)C1)N(C)C(=O)c1ccc(F)cc1 [Example 8.6, (S)-4-Fluoro-N-(1-(3-hydroxyazetidin-1-yl)pentan-2-yl)-N-methylbenzamide]	8500 nM	
CN(C(=O)c1ccc(Cl)cc1)[C@H](CN1CC(O)C1)C1CC1 [Example 7.2, (S)-4-Chloro-N-(1-cyclopropyl-2-(3-hydroxyazetidin-1-yl)ethyl)-N-methylbenzamide]	1800 nM	
Cc1cc(C(=O)N(C)[C@H](CN2CC(O)C2)C(C)C)ccc1F [Example 6.1, (S)-4-Fluoro-N-(1-(3-hydroxyazetidin-1-yl)-3-methylbutan-2-yl)-N,3-dimethylbenzamide]	1500 nM	
Cc1cc(C(=O)N(C)[C@H](CN2CCCC2)C(C)C)ccc1F [Example 12.1, (S)-4-Fluoro-N,3-dimethyl-N-(3-methyl-1-(pyrrolidin-1-yl)butan-2-yl)benzamide-dihydroxysuccinate]	15000 nM	1400 nM
CC(C)[C@@H](CN1CCC1)N(C)C(=O)c1ccc(Cl)cc1 [Example 5.1, (S)-N-(1-(Azetidin-1-yl)-3-methylbutan-2-yl)-4-chloro-N-methylbenzamide]	6000 nM	
CC(C)[C@@H](CN1CCCC1)N(C)C(=O)c1ccc(F)cc1Cl [Example 1.17, (S)-2-Chloro-4-fluoro-N-methyl-N-(3-methyl-1-(pyrrolidin-1-yl)butan-2-yl)benzamide]	4200 nM	2800 nM
CCC[C@@H](CN1CCC1)N(C)C(=O)c1ccc(Cl)cc1 [Example 1.2, (S)-N-(1-(Azetidin-1-yl)pentan-2-yl)-4-chloro-N-methylbenzamide]	3600 nM	
